Read-outs that look alike come from different tables or passages of the source.
Columns and labels:
L. tropica promastigotes = assay: Antileishmanial activity on L. tropica promastigotes (MTT); assay type: cell-based, Leishmania tropica; conditions: for IC50: 72 h, read-out: IC50 (µM) L. tropica
[1] = tested on: human microvascular endothelial cell line (HMEC-1); assay: Cytotoxicity on HMEC-1 cells (MTT); assay type: cell-based; conditions: for IC50: cytotoxicity, HMEC-1 cells, MTT; for SI L. infantum (IC50 HMEC-1/IC50 L. infantum) / SI L. tropica (IC50 HMEC-1/IC50 L. tropica): selectivity index
[2] = tested on: L. infantum promastigotes; assay: Antileishmanial activity on L. infantum promastigotes (MTT); assay type: cell-based, Leishmania infantum; conditions: for IC50: Leishmania infantum, 72 h, read-out: IC50 (µM) L. infantum
[3] = Leishmania tropica, promastigotes, MTT, starred values mean of two experiments
[4] = promastigotes of L. tropica and/or L. infantum
[5] = fold potency versus miltefosine
[6] = percent of amphotericin B potency, calculated for each experiment
[7] = promastigotes, MTT, starred values mean of two experiments

SMILES | IC50 (L. tropica promastigotes; [3]) [µM] | Antileishmanial activity in words (L. tropica promastigotes; [4]) | IC50 ([1]; Homo sapiens) [µM] | melting point [°C] | Ratio IC50 miltef./IC50 compd., L. tropica (L. tropica promastigotes; [5]) | IC50 amph. B ×100/IC50 compd., L. tropica (L. tropica promastigotes; [6]) | IC50 ([2]; promastigotes, MTT) [µM] | Ratio IC50 miltef./IC50 compd., L. infantum [2, 5] | IC50 amph. B ×100/IC50 compd., L. infantum [2, 6] | SI L. infantum (IC50 HMEC-1/IC50 L. infantum) [1] | SI L. tropica (IC50 HMEC-1/IC50 L. tropica) [1] | further results
CCCCCCCCCCCc1nc2ccccc2[nH]1 [Compound 1, 2-Undecyl-1 H-benzimidazole] | > 16.2 | inactive | 51 ± 7.5 | 108.1 to 109.3 |  |  |  |  |  |  |  | 
CCCCCCCCCCCc1nc2ccccc2n1C [Compound 2, 1-Methyl-2-undecyl-1H-benzimidazole] |  |  |  | 40.8 to 43.4 |  |  |  |  |  |  |  | 
CCCCCCCCCCCc1n(C)c2ccccc2[n+]1C.[I-] [Compound 3, 1,3-Dimethyl-2-undecyl-1 H-benzimidazol-3-ium iodide] | 1.68 |  | 2.64 ± 0.49 | 157.3 to 161.3 | 25.8 | 4.9 | 0.28 ± 0.07 | 111.6 | 55.7 | 9.43 | 1.57 | 
CCCCCCCCCCCc1n(Cc2ccccc2)c2ccccc2[n+]1Cc1ccccc1.[Cl-] [Compound 5, 1,3-Dibenzyl-2-undecyl-1H-benzimidazol-3-ium chloride] | 0.78 |  | 1.38 ± 0.17 | 223.3 to 225.3 | 55.5 | 10.5 | 0.61 ± 0.05 | 51.3 | 25.6 | 2.26 | 1.77 | 
CCCCCCCCCCCCCCCc1nc2ccccc2[nH]1 [Compound 6, 2-Pentadecyl-1 H-benzimidazole] | 5.05 ± 0.01 |  | > 37 | 88.8 to 94.2 | 8.6 | 1.6 | 10.1 ± 4.9 | 3.1 | 0.93 |  |  | 
CCCCCCCCCCCCCCCc1nc2ccccc2n1C [Compound 7, 1-Methyl-2-pentadecyl-1H-benzimidazole] | > 58 | inactive |  | 64.2 to 65.6 |  |  | > 58 |  |  |  |  | 
CCCCCCCCCCCCCCCc1n(C)c2ccc(C(F)(F)F)cc2[n+]1C.[I-] [Compound 9, 1,3-Dimethyl-2-pentadecyl-5-trifluoromethyl-1 H-benzimidazol-3-ium iodide] | 0.87 ± 0.16 |  | 1.86 ± 0.34 | 116 to 118 | 49.7 | 11.9 | 1.32 ± 0.3 | 23.7 | 8.9 | 1.41 | 2.14 | 
CCCCCCCCCCCCCCCc1n(C)c2ccc([N+](=O)[O-])cc2[n+]1C.[I-] [Compound 10, 1,3-Dimethyl-5-nitro-2-pentadecyl-1 H-benzimidazol-3-ium iodide] | 1.4 ± 0.58 |  | 2.11 ± 0.45 | 154 to 156 | 30.9 | 7.35 | 0.96 ± 0.17 | 32.6 | 12.3 | 2.20 | 1.51 | 
CCCCCCCCCCCCCCCc1n(C)c2cc(Cl)c(Cl)cc2[n+]1C.[I-] [Compound 11, 5,6-Dichloro-1,3-dimethyl-2-pentadecyl-1 H-benzimidazol-3-ium iodide] | 1.06 ± 0.54 |  | 1.68 ± 0.75 | 200 to 203 | 40.8 | 9.1 | 0.84 ± 0.13 | 37.2 | 14.1 | 2.00 | 1.58 | 
CCCCCCCCCCCCCCCc1n(C)c2ccccc2[n+]1CCC.[I-] [Compound 12, 1-Methyl-2-pentadecyl-3-propyl-1H-benzimidazol-3-ium iodide] | 0.51 |  | 0.73 ± 0.37 | 144.7 to 147.4 | 84.8 | 16.1 | 0.42 ± 0.14 | 74.4 | 37.1 | 1.74 | 1.43 | 
CCCCCCCCCCCCCCCc1nc2ccccc2n1C[c-]1cccc1.[Fe+2].c1cc[cH-]c1 [Compound 16, 1-(Ferrocenylmethyl)-2-pentadecyl-1 H-benzimidazole] |  | inactive |  |  |  |  |  |  |  |  |  | IC50 (L. tropica promastigotes; [7]): > 35 µM; IC50 [1]: > 35 µM
CCCCCCCCCCCCCCCc1n(C[c-]2cccc2)c2ccccc2[n+]1C.[Fe+2].[I-].c1cc[cH-]c1 [Compound 17, 1-(Ferrocenylmethyl)-3-methyl-2-pentadecyl-1 H-benzimidazol-3-ium iodide] |  |  |  |  | 12.2 | 3.34 |  |  |  |  | 0.35 | IC50 (L. tropica promastigotes; [7]): 3.56 ± 0.84 µM; IC50 [1]: 1.26 ± 0.24 µM
CCCC(CCC)c1nc2ccccc2n1C [Compound 19, 2-(Heptan-4-yl)-1-methyl-1 H-benzimidazole] | 30 ± 10.3 |  | > 74 |  | 1.4 | 0.40 |  |  |  |  | >2.43 | 
CCCC(CCC)c1n(C)c2ccccc2[n+]1C.[I-] [Compound 20, 1,3-Dimethyl-2-(heptan-4-yl)-1 H-benzimidazol-3-ium iodide] | > 73 | inactive | > 73 | 192.2 to 192.9 |  |  |  |  |  |  |  | 
Cn1c(Cc2ccc(Cl)cc2)[n+](C)c2ccccc21.[I-] [Compound 21, 2-(4-Chlorobenzyl)-1,3-dimethyl-1 H-benzimidazol-3-ium iodide] | > 50 | inactive |  | 94 to 98 |  |  | > 50 |  |  |  |  | 
Cn1c(Cc2ccc(Cl)cc2)[n+](C)c2cc(C(F)(F)F)ccc21.[I-] [Compound 22, 2-(4-Chlorobenzyl)-1,3-dimethyl-5-trifluoromethyl-1 H-benzimidazol-3-ium iodide] | 33.9 ± 12.6 |  |  | 60 | 1.3 | 0.30 | 16.7 ± 7.07 | 1.9 | 0.70 |  |  | 
CCN(CC)CCCn1c(Cc2ccc(OC)cc2)nc2cc(C(C)=O)ccc21 [Compound 25] |  |  |  |  |  |  |  |  |  |  |  | Antileishmanial activity in words (L. tropica promastigotes): inactive; IC50 (L. tropica promastigotes; Leishmania tropica): > 51 µM; IC50 [2]: > 51 µM
CC(=O)c1ccc2c(c1)nc(Cc1ccccc1)n2C[C@@H]1CCCN2CCCC[C@H]12 [Compound 29] | 23.7 ± 8.54 |  |  |  | 1.8 | 0.75 | 28.5 ± 8.66 | 1.1 | 0.73 |  |  | 
COc1ccc(Cc2nc3cc(C(C)=O)ccc3n2C[C@@H]2CCCN3CCCC[C@H]23)cc1 [Compound 31] |  |  |  |  |  |  |  |  |  |  |  | IC50 amph. B ×100/IC50 compd., L. tropica (L. tropica promastigotes): 0.74; Ratio IC50 miltef./IC50 compd., L. tropica (L. tropica promastigotes): 1.8; IC50 (L. tropica promastigotes; Leishmania tropica): 23.9 ± 7.78 µM; IC50 amph. B ×100/IC50 compd., L. infantum [2]: 0.73; Ratio IC50 miltef./IC50 compd., L. infantum [2]: 1.1; IC50 [2]: 28.5 ± 4.47 µM
C[n+]1c(-c2ccc(Cl)cc2)n(C[C@@H]2CCC[N+]3(C)CCCC[C@H]23)c2ccc(C(F)(F)F)cc21 (stereo partly drawn) [Compound 39, 2-(4-Chlorophenyl)-3-methyl-1-{[5-methylammonio-(1 S,9aR)-octahydroquinolizin-1-yl]-methyl}-5-trifluoromethyl-1 H-benzimidazol-3-ium diiodide] | > 27 | inactive |  | 165 to 169 |  |  | > 27 |  |  |  |  | 
